Each structure is given as a SMILES string.

The assay concerns the target T1, acetohydroxyacid synthase (AHAS) (Arabidopsis thaliana, UniProt P17597).
T1 construct: gene ALS; wild-type
T1 sequence (P17597 56-670): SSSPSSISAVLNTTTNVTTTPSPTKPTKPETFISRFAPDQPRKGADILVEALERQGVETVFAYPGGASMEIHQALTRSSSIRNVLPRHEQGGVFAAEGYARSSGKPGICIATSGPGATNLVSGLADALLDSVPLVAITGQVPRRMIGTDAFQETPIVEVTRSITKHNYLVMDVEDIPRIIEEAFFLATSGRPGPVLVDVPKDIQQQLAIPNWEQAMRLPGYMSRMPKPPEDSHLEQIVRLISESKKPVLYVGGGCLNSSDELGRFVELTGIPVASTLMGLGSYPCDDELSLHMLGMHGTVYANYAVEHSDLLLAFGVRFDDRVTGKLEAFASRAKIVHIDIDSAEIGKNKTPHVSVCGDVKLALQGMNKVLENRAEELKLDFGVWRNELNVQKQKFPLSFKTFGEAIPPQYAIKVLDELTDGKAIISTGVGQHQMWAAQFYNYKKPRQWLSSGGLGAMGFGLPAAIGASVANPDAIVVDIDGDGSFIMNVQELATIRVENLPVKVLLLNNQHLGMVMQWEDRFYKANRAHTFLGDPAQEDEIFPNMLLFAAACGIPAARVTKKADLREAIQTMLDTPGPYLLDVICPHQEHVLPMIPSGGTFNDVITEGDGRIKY
The assay can be described thus: purified AtAHAS colorimetric activity assay ([…] nm). Type of assay: biochemical.
`COc1cc(OC)nc(Oc2ccccc2CNc2ccccc2-c2ccccc2)n1` [Ia] came in with an IC50 of 157 µM.

As for `COc1cc(OC)nc(Oc2ccccc2CNc2ccccc2)n1` [PBA], the IC50 worked out at 593 µM.

For `COc1cc(OC)nc(Oc2ccccc2CNc2ccc(-c3ccccc3)cc2)n1` [IIIa], the IC50 is 343 µM.

`COc1cc(OC)nc(Oc2ccccc2CNc2cccc(-c3ccccc3)c2)n1` [IIa] registered an IC50 of 189 µM.

A word on the IC50: it is the concentration needed to halve the response being measured. Read a low IC50 as inhibition by little substance.
